Experimental data published in patent publication US20150190421A1, “POLOXAMERS FOR THE IMPROVEMENT OF RESPIRATORY FUNCTION” (PHRIXUS PHARMACEUTICALS, INC., priority 2012, published 2015).
“Also recorded” adds a separate entry of the source. Marks after values point to notes of the source that are not given here.

Columns and labels:
[1] = test system: mdx mouse model of Duchenne Muscular Dystrophy; experiment: Whole Body Plethysmography respiration monitoring, mdx mice, 22 weeks daily s.q. dosing; type: in vivo
Description: Animals. Male C57BL/10SnJ, hereafter referred to as wild-type (WT), and male mdx C57B1/10ScSn-Dmdmdx mice were used in the study. All protocols were approved by the University of Michigan (UM) UCUCA and all studies were performed in facilities run by the University of Michigan Unit of Laboratory Animal Medicine. […] Mice were purchased from Jackson Laboratories and aged in UM facilities. All ages given are ±2 weeks. Mice were randomized into groups upon receipt from Jackson Laboratories in order to minimize the need for additional cages. […] All compounds were administered subcutaneously.
Respiration was monitored using a Buxco Whole Body Plethysmography (WBP) monitoring chambers for mouse Cat. No. PLY4211 (Buxco Research Systems, Wilmington, N.C.) according to the manufacturer's instructions. In this protocol animals are unrestrained and un-anesthetized. Monitoring was performed in the room in which the animals were housed. The mice were monitored for 2 months prior to initiation of treatment to acclimate the mice to the procedure and establish baseline respiratory parameters done with the last weeks reading prior to initiation of dosing. Mice were randomized into groups based on tidal volume measurements. Upon initiation of dosing, mice were monitored every 2 weeks. Mice were placed in monitoring chambers and allowed to acclimate for 15 minutes prior to recording respiratory parameters. Respiration was then monitored for 10 minutes. Each mouse was monitored in the same chamber for each reading throughout the study to minimize variability.
During acclimation and measurements, the room door was shut and technician movement and room noise was kept to a minimum to allow for complete acclimation. […] Chambers were wiped clean between animals. Data was monitored and collected using FinePoint software (Cat. No. SFT4000) purchased from Buxco Research Systems (Wilmington, N.C.). […] Comparisons between groups of daily, every other day or weekly dosed animals were done by one-way ANOVA using the Neumann-Keuls post-hoc test. Significance was P<0.05. N=10-12 animals per group.
Abbreviations used include the following (units): F, respiration rate (breaths/minute), TV, tidal volume, (ml); TV/BWT, ratio of tidal volume to body weight, (mL/kg); MV, minute volume, (mL/min); Penh, enhanced pause, (no units); Rpef, the ratio of the time from start of expiration to peak expiratory flow to Te (no units); PIF, peak inspiratory flow, (mL sec); PEF, peak expiratory flow, (mL/sec); Te, expiratory time (sec); Ti, inspiratory time, (sec); Tr, relaxation time, (sec).
Respiration was monitored every 2 weeks by WBP.

[2] = test system: diaphragm muscle of mdx mice; experiment: Diaphragm histology (centralized nuclei, fiber size and density, fibrosis), mdx mice; type: in vivo, mouse; settings: prednisone 1 mg/kg QD s.q., 22 weeks
Description: Analysis of centralized nuclei. One marker of degeneration is the amount of compensatory regeneration occurring within the muscle. Since newly regenerating fibers have centrally located nuclei, the percentage of fibers with centralized nuclei (CN) from the diaphragm of each animal was determined (FIG. 2A).
Analysis of fiber size and density. The cross-sectional area of regenerating or recently regenerated fibers is expected to be smaller than that of mature muscle fibers. The cross sectional area of approximately 50 muscle fibers was measured from each mouse (600 fibers/group).
Analysis of fibrosis. Fibrosis was measured as the percentage of […] area/total area in Masson's trichrome stained sections.

[3] = Table 3, prednisone 1 mg/kg daily, 22 wks, mean ± S.D.
[4] = prednisone 1 mg/kg QD s.q., 22 weeks, mean ± S.D.

C[C@]12C=CC(=O)C=C1CC[C@@H]1[C@@H]2C(=O)C[C@@]2(C)[C@H]1CC[C@]2(O)C(=O)CO [Prednisone, prednisone]
TV, 22 wks [1, 3]: 0.332 ± 0.021 mL | TV/BW, 22 wks [1, 3]: 9.9 ± 1.2 mL/kg | increase in TV/BW compared with mdx saline (cause) ([1]; prednisone 1 mg/kg QD s.q., 22 weeks): due to a loss of body weight and not due to improvement in TV | F (respiration rate) [1, 4]: 328 ± 30 breaths/min | MV (minute volume) [1, 4]: 107 ± 11^b ml/min | PEF (peak expiratory flow) [1, 4]: 4.2 ± 0.4^b mL/sec | PIF (peak inspiratory flow) [1, 4]: 8.3 ± 0.8^c mL/sec | Penh (enhanced pause) [1, 4]: 0.393 ± 0.080 | Rpef [1, 4]: 0.496 ± 0.085 | TV (tidal volume) [1, 4]: 0.332 ± 0.021^c mL | Ti (inspiratory time) [1, 4]: 0.068 ± 0.006 s | Tr (relaxation time) [1, 4]: 0.094 ± 0.018 s | percentage of fibers with centralized nuclei (CN), diaphragm [2]: nearly the same percentage of fibers with CN as the mdx saline group; also recorded: higher percentage of muscle fibers in the regeneration process than in the P-188 treated groups
